Measured values from patent US20250186556A1, “COMBINATION THERAPY WITH IMMUNOMODULATORS, DYRK1A INHIBITORS, AND GLP1R AGONISTS FOR TYPE 1 DIABETES TREATMENT” (ICAHN SCHOOL OF MEDICINE AT MOUNT SINAI, priority 2022, published 2025).

How the values were obtained:
[1] = test system: human β-cells; assay: Analysis of human β-cell death in vitro (TUNEL/insulin staining); format: cell-based; conditions: 10 μM harmine, 10 nM exendin-4, 24 hours, TUNEL
Description: Briefly, after washing the human islets with PBS twice, 200 μl pre-warmed Accutase (Corning) was added, and the tube was incubated at 37° C. for 10 minutes. Then, complete RPMI medium (RPMI with 5 mM D-glucose, 10% FBS, 100 units/ml penicillin, and 100 μg/ml streptomycin) was added, the sample was centrifuged at 1000 rpm for three min, the pellet was washed with PBS and centrifuged again at 1000 rpm for three min. The pellet was resuspended in complete RPMI medium and 50,000 cells/well were plated on 12-mm glass coverslips, placed in 24-well plates, and incubated at 37° C. and 5% CO2 for 24 hours. […] Cells were incubated at 37° C. and 5% CO2 for 24 hours. Then, cells were fixed in 4% paraformaldehyde and TUNEL (cell death marker) and insulin staining were performed using the DeadEnd Fluorometric TUNEL System (Promega), anti-proinsulin/C-peptide antibody (DSHB), and DAPI for nuclei detection. A minimum of 1,500 β-cells were examined per coverslip.

[2] = test system: human β-cells; assay: Human islet single cell RNA sequencing (scRNA-seq), gene set enrichment in β-cells; format: cell-based; conditions: human islets, 10 μM harmine, 10 nM exendin-4, 6 h
Description: After treatment, human islets were washed twice with PBS and centrifuged at 300 rpm for three min. After removing the PBS, 200 μl pre-warmed Accutase was added and the islets were incubated at 37° C. for 10 minutes. Then, complete RPMI medium was added, the sample centrifuged at 1000 rpm for three min, and the pellet was washed with PBS. Cells were then resuspended in binding buffer (Miltenyi Biotec) and dead cell removal beads, the tube was incubated for 15 minutes at room temperature and the cell suspension applied onto the dead cell removal column (Miltenyi Biotec), which was attached to the MACS separator. […]
Cell samples were prepared according to the user guide of 10× Genomics Single Cell 3′ V3.1 Reagent Kit, processed with 10× Genomic Chromium Controller for partitioning and barcoding, followed by the cDNA library generation. The total cell concentration analyzed by the Countess 3 was then sequenced by the NovaSeq 6000 System (Illumina). […] After the 10×, h5 format file was generated, the data were analyzed on the R language platform with Seurat package V.4.0. […]
After assessment of the data quality control parameters as above, integrated scRNA-data were created with Seurat's SCTransform function without allocating method parameters. […] After enrichment scores were calculated for each single cell, they were added to the Meta data for analysis and visualization by dotplot.

[3] = test system: patients with new-onset type 1 diabetes; conditions: for up to seven years following initial diagnosis; cited from earlier work

Molecule	human β-cell death induced by thapsigargin ([1]; 500 nM thapsigargin)	human β-cell death induced by cytokines ([1]; cytokines IL-1β, TNF-α, IFN-γ)	inhibitory HLA-E expression in β-cells treated with cytokines [2]	expression of pro-inflammatory, intrinsic and extrinsic apoptosis, HLA class I, chemokines CXCL9-11 and interferon regulatory factor 1-9 signaling pathways in β-cells treated with cytokines ([2]; GSEA)	loss of β-cell function [3]
COc1ccc2c(c1)[nH]c1c(C)nccc12 [harmine]	non-significant, partial protection	non-significant, partial protection	increased	not with the drugs alone	–
teplizumab: humanized, non-mitogenic aglycosylated anti-CD3 monoclonal antibody	–	–	–	–	reduces the loss of β-cell function
